Read-outs that look alike come from different tables or passages of the source.
Experiments:
A549 = experiment: MTT cytotoxicity assay, A549; assay type: cell-based; conditions: Homo sapiens, A549, 72 h
Description: (§1) All cell lines were obtained from the American Type Culture Collection (ATCC) and cultured in the specified medium supplemented with 10% fetal bovine serum, 100 IU/mL penicillin, and 100 μg/mL streptomycin at 37°C in a humidified 5% CO2/95% air incubator. Synthesis of new compounds is described in S1 File, and >95% purity of RA475, Up284 and its analogs were confirmed by NMR and MS. To assess drug cytotoxicity, cells were seeded at 2,500 cells/well (10,000 cells/well for MM lines) in 100 μL medium in 96-well plate as triplicates and after 24 h treated with compounds for a further 72 h. To assess cytotoxicity, the cells were incubated for 2 h at 37°C according to the manufacturer’s protocol with the Thiazolyl Blue Tetrazolium Bromide (20 μL/well of 5 mg/mL stock solution in water) (Sigma, M5655) and A570 measured using a Benchmark Plus microplate spectrophotometer (BIO-RAD). IC50 was estimated using Graphpad Prism 7 software.

4T1 = experiment: MTT cytotoxicity assay, 4T1; assay type: cell-based; conditions: Mus musculus, 4T1, 72 h
Description: as §1

Calu-1 = experiment: MTT cytotoxicity assay, Calu-1; assay type: cell-based; conditions: Homo sapiens, Calu-1, 72 h
Description: as §1

PEA2 = experiment: MTT cytotoxicity assay, PEA2; assay type: cell-based; conditions: Homo sapiens
Description: as §1
Modifications of Up284 were sought to improve its drug-like properties without significant compromise of its activity in vivo, and several new compounds were synthesized (S1 File). Based on our prior studies of its pharmacophore, the central ring nitrogen was the most logical for addition of charged moieties, including RA475 and RA484. We also examined a change to either 3,4 spiro rings (RA477, RA479), or addition of 3-Fluoro substitutions (RA482) (S1 File). Our focus is developing iRPN13 to treat ovarian cancer resistant to standard of care drug regimens.

Mouse keratinocytes = experiment: MTT cytotoxicity assay, mouse keratinocytes; assay type: cell-based; conditions: Keratinocyte, Mouse keratinocytes (normal cells), 72 h
Description: as §1

HeLa = experiment: MTT cytotoxicity assay, HeLa; assay type: cell-based; conditions: Homo sapiens, 72 h
Description: as §1

4UbFL in ES2 cells = experiment: 4UbFL reporter assay, ES2; assay type: cell-based, human; conditions: 4 h; for 4UbFL stabilization, fold over DMSO: ES2, 1.25 μM; for 4UbFL bioluminescence, luminometer: ES2 stably expressing 4UbFL
Description: Sub-confluent cultures of cells were transfected with 4UbFL plasmid using TransIT 2020 reagent (Mirus Bio). Cells were seeded at 10,000 cells/well in 96-well plates 48 h post transfection, and incubated with compounds or vehicle (DMSO) at the doses and for the times indicated. Luciferase activity in cell lysate was determined with a luciferase assay kit (Promega) according to the manufacturer’s instructions. Bioluminescence was measured using a Glomax Multidetection system (Promega).
Fig 3 Impact of RA475 on proteasome function. […] Actin was used as loading control. […] C) 4T1 and HCC1806 cells stably expressing 4UbFL were treated with compounds at indicated doses for 4 h and imaged by IVIS200 after the addition of luciferin substrate (50 μL, 7mg/mL in PBS). D) Sub-confluent cultures of ES2 cells stably expressing 4UbFL were seeded at 10,000 cells/well in 96-well microtiter plates. At 18 h post transfection, cells were treated with compounds or vehicle (DMSO) at the doses indicated. After a 4 h incubation, the cells were lysed and the luciferase activity in each cell lysate was determined with a luciferase assay kit (Promega) according to the manufacturer’s instructions. Bioluminescence was measured by using a luminometer (Glomax Multidetection system, Promega) E) A patch was shaved of hair on one leg of CD-1 mice, and 10 μg 4UbFL plasmid in 20 μL of PBS was injected into the quadriceps femoralis muscle followed immediately by injection of the 2 Needle Array to 5 mm depth encompassing the injection site and square wave electroporation (ElectroSquarePorator 833, BTX-2 Needle array 5mm gap, Harvard apparatus) delivered as eight pulses at 106V for 20 ms with 200 ms intervals. One day post electroporation, mice were anesthetized with isoflurane, injected IP with luciferin (0.3 mg in 100 μL water) and optical imaging was performed to determine basal level luciferase expression. Images were acquired for 10 min with a Xenogen IVIS 200 (Caliper, Hopkinton, MA). Equally sized areas were analyzed using Living Image 2.20 software. Mice were imaged weekly during treatment. Mice were randomized into three groups (n = 5) and treated IP once with Vehicle (25% (w/v) β-Hydroxypropylcyclodextrin in water, Sigma Aldrich) alone, RA475 (40 mg/Kg) or Up284 (40 mg/Kg) and mice were imaged again at 4 h, 24 h, 48 h, 72 h and 96 h later. F) Same as in E but RA475 (40mg/Kg) and ixazomib (10mg/Kg, recommended dose) were delivered orally. Thick line indicates median measurements. P-values are results based on Wilcoxon rank sum test for pairwise comparisons to vehicle cohort at each time point with multiplicity adjustment.
Firefly Luciferase (FL) is a stable protein in cells, but when fused with four molecules of ubiquitin (4Ub) it is targeted for rapid degradation by proteasomes. […]

GSH reactivity assay = assay type: physicochemical; conditions: for Average Area Ratio Normalized: with GSH divided by without GSH; for remaining at 1.5 h, 20 μM: pH 7.4
Description: Test compounds (20 μM, final organic solvent concentration 10%) were incubated with 1 mM GSH in phosphate buffer (100 mM), pH 7.4 at 37°C, shaking at 300 rpm. In the control reactions (“without GSH”), the GSH was substituted with phosphate buffer. Five time points over 1.5 h were analyzed (0, 0.33, 0.66, 1 and 1.5 h). The reactions were stopped by adding 50 μL aliquots of the reaction mixture to 9 volumes of methanol: water: formic acid (10:10:0.04) with internal standard (IS). Samples were analyzed using HPLC system coupled with a tandem mass spectrometer. Average (triplicate) area ratios were calculated. GSH reactivity was calculated taking into account the possible instability of the compound during incubation. All calculations were performed using normalized data obtained by dividing the average area ratio of the test compound incubated with GSH by the average area ratio of the test compound incubated without GSH. Natural logarithms of the results were fitted to linear regression, and half-life (t1/2) was calculated as: t1/2=ln2/-slope

[1] = 0 h, 1 mM GSH, 20 μM compound, pH 7.4, 37°C
[2] = 1 mM GSH in phosphate buffer, 1.5 h, read-out: % Remaining with GSH, normalized
[3] = 1 mM GSH in phosphate buffer, 1 mM GSH, pH 7.4, 37°C, read-out: t1/2 with GSH, normalized (converted)
[4] = phosphate buffer, pH 7.4, 37°C, read-out: t1/2 w/o GSH
[5] = phosphate buffer, 1.5 h, read-out: % Remaining w/o GSH

Structure (SMILES) | IC50 (A549) | IC50 (4T1) | IC50 (Calu-1) | IC50 (Mouse keratinocytes) | IC50 (HeLa) | 4UbFL stabilization, fold over DMSO (4UbFL in ES2 cells) | 4UbFL bioluminescence, luminometer (4UbFL in ES2 cells) | time within which compound reacted with GSH (GSH reactivity assay) | Average Area Ratio with GSH (GSH reactivity assay; [1]) | Average Area Ratio without GSH (GSH reactivity assay; 0 h, phosphate buffer) | Average Area Ratio Normalized (GSH reactivity assay; 0 h) | remaining at 1.5 h, 20 μM (GSH reactivity assay; [2]) | half-life at 20 μM (GSH reactivity assay; [3]) | Average Area Ratio with GSH (GSH reactivity assay; 0.33 h, 1 mM GSH) | Average Area Ratio without GSH (GSH reactivity assay; 0.33 h, phosphate buffer) | Average Area Ratio Normalized (GSH reactivity assay; 0.33 h) | Average Area Ratio with GSH (GSH reactivity assay; 0.66 h, 1 mM GSH) | Average Area Ratio without GSH (GSH reactivity assay; 0.66 h, phosphate buffer) | Average Area Ratio Normalized (GSH reactivity assay; 0.66 h) | Average Area Ratio with GSH (GSH reactivity assay; 1 h, 1 mM GSH) | other results
Cl.Cl.N#Cc1ccc(/C=C2/C(=O)/C(=C/c3ccc(C#N)cc3)C23CCN(C(=N)N)CC3)cc1 [RA475, 1,3-bis((E)-4-cyanobenzylidene)-2-oxo-7-azaspiro[3.5]nonane-7-carboximidamide dihydrochloride] | 219 nM | 261 nM | 241 nM | > 2500 nM | 213 nM | > 20 fold | dose-dependent increase in bioluminescence | ≤ 30 min | 1.00E+02 | 1.00E+02 | 9.10E+01 | 8% | 12.2 min | 2.00E+01 | 9.44E+01 | 1.93E+01 | 1.02E+01 | 9.60E+01 | 9.62E+00 | 8.18E+00 | IC50 (PEA2; 72 h): 356 nM; Average Area Ratio without GSH (GSH reactivity assay; 1 h, phosphate buffer): 9.22E+01; Average Area Ratio Normalized (GSH reactivity assay; 1 h): 8.07E+00; Average Area Ratio with GSH (GSH reactivity assay; 1.5 h, 1 mM GSH): 7.92E+00; Average Area Ratio without GSH (GSH reactivity assay; 1.5 h, phosphate buffer): 9.03E+01; Average Area Ratio Normalized (GSH reactivity assay; 1.5 h): 7.98E+00; half-life at 20 μM (GSH reactivity assay; [4]): > 360 min; remaining at 1.5 h, 20 μM (GSH reactivity assay; [5]): 90%
N#Cc1ccc(/C=C2/C(=O)/C(=C/c3ccc(C#N)cc3)C23CCNCC3)cc1 [Up284, reference compound] | 90 nM | 120 nM | 65 nM | > 2500 nM | 40 nM | > 20 fold | dose-dependent increase in bioluminescence | ≤ 30 min | 1.00E+02 | 1.00E+02 | 8.68E+01 | 10% | 12.2 min | 1.76E+01 | 1.03E+02 | 1.48E+01 | 1.18E+01 | 1.13E+02 | 9.11E+00 | 1.20E+01 | IC50 (PEA2; PEA2, 72 h, MTT, read-out: IC50): 144 nM; Average Area Ratio without GSH (GSH reactivity assay; 1 h, phosphate buffer): 1.18E+02; Average Area Ratio Normalized (GSH reactivity assay; 1 h): 8.78E+00; Average Area Ratio with GSH (GSH reactivity assay; 1.5 h, 1 mM GSH): 1.30E+01; Average Area Ratio without GSH (GSH reactivity assay; 1.5 h, phosphate buffer): 1.18E+02; Average Area Ratio Normalized (GSH reactivity assay; 1.5 h): 9.58E+00; half-life at 20 μM (GSH reactivity assay; [4]): > 360 min; remaining at 1.5 h, 20 μM (GSH reactivity assay; [5]): 118%
